# Reference: patent US20110046131A1, “PURINES AS PKC-THETA INHIBITORS” (N.V. Organon and Pharmacopeia, LLC, priority 2006, published 2011)
# What was measured:
# Assay type in all cases: biochemical
# SGK kinase = target: T1, SGK kinase (Homo sapiens, UniProt O00141); experiment: IC50 for SGK kinase (selectivity); conditions: for IC50: read-out: IC50-SGK1
# T1 sequence (O00141 1-431): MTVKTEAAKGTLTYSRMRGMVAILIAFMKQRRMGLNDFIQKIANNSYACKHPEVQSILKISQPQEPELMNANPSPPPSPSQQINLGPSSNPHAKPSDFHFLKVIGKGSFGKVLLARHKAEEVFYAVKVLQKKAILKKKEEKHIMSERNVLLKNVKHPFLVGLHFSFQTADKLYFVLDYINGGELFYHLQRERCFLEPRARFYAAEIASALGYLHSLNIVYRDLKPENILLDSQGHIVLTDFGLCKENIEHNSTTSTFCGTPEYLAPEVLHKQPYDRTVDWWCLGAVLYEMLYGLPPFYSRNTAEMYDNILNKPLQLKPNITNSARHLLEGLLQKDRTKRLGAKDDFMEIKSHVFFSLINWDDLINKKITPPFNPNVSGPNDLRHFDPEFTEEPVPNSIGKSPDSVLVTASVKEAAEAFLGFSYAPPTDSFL
# Procedure: Entries identified with “1” had values above 250 nM; entries identified with “2” had values above 1 μM; entries identified with “3” had values above 10 μM.
# PKC delta = target: T2, PKC delta (Homo sapiens, UniProt Q05655); experiment: Ki Pan Vera (PV) potency for PKC delta; conditions: Ki Pan Vera (PV) of PKC delta
# T2 construct: purchased Pan Vera
# Procedure: [The source words this procedure for another target and reports this target under the same test.] (§1) For Ki Pan Vera (PV) of PKCθ, entries identified with “A” had values below 100 nM; entries identified with “B” had values below 1 μM; and entries identified with “C” had values below 10 μM.
# PKC alpha = target: T3, PKC alpha (Homo sapiens, UniProt P17252); experiment: Ki Pan Vera (PV) potency for PKC alpha; conditions: Ki Pan Vera (PV) of PKC alpha
# T3 construct: purchased Pan Vera
# Procedure: [The source words this procedure for another target and reports this target under the same test.] as §1
# PKCθ = target: T4, PKCθ (Homo sapiens, UniProt Q04759); experiment: Ki Pan Vera (PV) potency for PKCθ; conditions: Ki Pan Vera (PV) of PKCθ
# T4 construct: purchased Pan Vera
# Procedure: as §1
# T2 sequence (Q05655 whole entry): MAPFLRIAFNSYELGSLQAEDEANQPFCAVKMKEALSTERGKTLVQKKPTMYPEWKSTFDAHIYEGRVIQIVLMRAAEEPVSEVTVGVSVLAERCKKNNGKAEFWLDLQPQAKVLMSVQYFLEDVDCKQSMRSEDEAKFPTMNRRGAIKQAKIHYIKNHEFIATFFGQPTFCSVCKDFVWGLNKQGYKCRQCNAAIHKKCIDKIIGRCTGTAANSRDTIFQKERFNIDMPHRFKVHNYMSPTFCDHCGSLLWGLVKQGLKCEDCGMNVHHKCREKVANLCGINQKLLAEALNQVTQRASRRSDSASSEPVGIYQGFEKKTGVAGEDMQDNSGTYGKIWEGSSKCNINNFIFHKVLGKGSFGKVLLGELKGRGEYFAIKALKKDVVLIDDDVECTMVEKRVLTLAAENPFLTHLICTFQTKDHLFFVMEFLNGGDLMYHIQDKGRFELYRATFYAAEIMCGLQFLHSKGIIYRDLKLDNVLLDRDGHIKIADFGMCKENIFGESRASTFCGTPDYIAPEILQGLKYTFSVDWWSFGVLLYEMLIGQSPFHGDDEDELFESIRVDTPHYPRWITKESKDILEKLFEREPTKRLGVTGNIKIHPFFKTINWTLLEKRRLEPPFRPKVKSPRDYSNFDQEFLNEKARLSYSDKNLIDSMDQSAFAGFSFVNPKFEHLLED
# T4 sequence (Q04759 whole entry): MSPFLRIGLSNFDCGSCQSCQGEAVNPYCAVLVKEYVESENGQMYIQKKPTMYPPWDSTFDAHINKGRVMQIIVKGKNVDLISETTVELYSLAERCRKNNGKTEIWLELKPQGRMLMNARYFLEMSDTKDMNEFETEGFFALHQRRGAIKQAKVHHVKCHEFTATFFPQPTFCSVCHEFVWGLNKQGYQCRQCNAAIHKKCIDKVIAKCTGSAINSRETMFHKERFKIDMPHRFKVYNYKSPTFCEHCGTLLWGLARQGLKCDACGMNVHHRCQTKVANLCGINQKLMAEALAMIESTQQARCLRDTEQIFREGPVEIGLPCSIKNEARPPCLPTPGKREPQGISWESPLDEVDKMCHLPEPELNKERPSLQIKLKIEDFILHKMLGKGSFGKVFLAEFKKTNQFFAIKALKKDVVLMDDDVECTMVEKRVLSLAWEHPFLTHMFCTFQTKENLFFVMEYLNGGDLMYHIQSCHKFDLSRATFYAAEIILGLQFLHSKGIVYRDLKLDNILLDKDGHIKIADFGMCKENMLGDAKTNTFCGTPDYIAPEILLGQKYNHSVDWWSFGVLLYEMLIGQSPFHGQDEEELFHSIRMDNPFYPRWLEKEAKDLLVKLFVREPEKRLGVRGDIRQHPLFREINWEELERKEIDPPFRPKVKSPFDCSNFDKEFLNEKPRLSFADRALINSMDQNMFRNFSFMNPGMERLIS
IC50-SGK1 (SGK kinase),Ki (PKC delta) [µM],Ki (PKC alpha) [µM],Ki (PKCθ) [µM],IC50 (SGK kinase) [µM],SMILES
Inactive,> 1,> 1,< 1,–,Fc1ccc(F)c(CNc2ncc3nc(-c4c(Cl)cccc4Cl)n(C[C@H]4CCNC4)c3n2)c1 [Compound 125]
–,> 1,> 10,< 10,–,Fc1cccc(Cl)c1-c1nc2cnc(NCc3ccc(Cl)c(Cl)c3)nc2n1C[C@@H]1CCCNC1 [Compound 132]
Inactive,> 1,> 1,< 1,–,Fc1cccc(Cl)c1-c1nc2cnc(NCc3cccc(Cl)c3)nc2n1C[C@H]1CCNC1 [Compound 216]
Inactive,> 1,> 10,< 1,–,NCCCCCCn1c(-c2c(Cl)cccc2Cl)nc2cnc(NCc3ccccc3F)nc21 [Compound 122]
Inactive,> 1,> 1,< 1,–,Fc1ccccc1CNc1ncc2c(n1)C(C[C@H]1CCCNC1)C(c1c(Cl)cccc1Cl)=N2 (stereo partly drawn) [Compound 129]
Inactive,> 10,> 10,< 10,–,Fc1cc(Cl)ccc1CNc1ncc2nc(-c3c(Cl)cccc3Cl)n(C[C@@H]3CCCNC3)c2n1 [Compound 213]
Inactive,> 1,> 1,< 1,–,Fc1ccc(F)c(CNc2ncc3nc(-c4c(F)cccc4Cl)n(C[C@H]4CCNC4)c3n2)c1 [Compound 209]
–,> 1,> 1,< 10,> 10,Clc1cccc(Cl)c1-c1nc2cnc(NCc3ccco3)nc2n1CCC1CCNCC1 [Compound 214]
Inactive,> 1,> 1,< 0.1,–,Fc1ccc(CNc2ncc3nc(-c4c(Cl)cccc4Cl)n(C[C@H]4CCNC4)c3n2)cc1F [Compound 121]
–,> 1,> 1,< 1,–,Fc1cccc(Cl)c1-c1nc2cnc(NCc3ccccc3)nc2n1C[C@@H]1CCCNC1 [Compound 145]
–,> 1,> 10,< 10,> 10,Clc1ccc(CNc2ncc3nc(-c4c(Cl)cccc4Cl)n(CC4CCNC4)c3n2)cc1Cl (stereo not drawn) [Compound 206]
Inactive,> 1,> 1,< 1,–,Fc1ccc(CNc2ncc3nc(-c4c(F)cccc4Cl)n(C[C@H]4CCNC4)c3n2)cc1F [Compound 174]
Inactive,> 0.25,> 1,< 0.1,–,Fc1ccc(CNc2ncc3nc(-c4c(Cl)cccc4Cl)n(C[C@@H]4CCCNC4)c3n2)cc1 [Compound 105]
Inactive,> 1,> 10,< 10,–,Clc1cc(Cl)cc(CNc2ncc3nc(-c4c(Cl)cccc4Cl)n(C[C@@H]4CCCNC4)c3n2)c1 [Compound 134]
Inactive,–,–,–,–,Clc1cccc(Cl)c1C1=Nc2cnc(NCc3nccs3)nc2C1C[C@@H]1CCCNC1 (stereo partly drawn) [Compound 137]
–,> 1,> 1,< 1,> 10,Fc1ccc(CNc2ncc3nc(-c4c(Cl)cccc4Cl)n(CC4CCNC4)c3n2)cc1 (stereo not drawn) [Compound 158]
Inactive,> 1,> 1,< 1,–,Fc1ccc(CNc2ncc3nc(-c4ccccc4Cl)n(C[C@@H]4CCCNC4)c3n2)cc1 [Compound 171]
Inactive,> 1,> 10,< 1,–,Fc1ccc(F)c(CNc2ncc3nc(-c4ccccc4Cl)n(C[C@@H]4CCCNC4)c3n2)c1 [Compound 167]
Inactive,> 1,> 1,< 1,–,Fc1ccccc1CNc1ncc2nc(-c3c(F)cccc3Cl)n(CC3CCCNC3)c2n1 (stereo not drawn) [Compound 160]
Inactive,> 1,> 1,< 1,–,Fc1ccc(CNc2ncc3c(n2)C(C[C@@H]2CCCNC2)C(c2c(F)cccc2Cl)=N3)cc1 (stereo partly drawn) [Compound 128]
–,> 1,> 1,< 1,–,Fc1ccc(CNc2ncc3nc(-c4c(Cl)cccc4Cl)n(CC4CCNC4)c3n2)cc1Cl (stereo not drawn) [Compound 139]
–,> 1,> 1,< 1,> 1,Fc1ccccc1CNc1ncc2nc(-c3c(Cl)cccc3Cl)n(C[C@H]3CCNC3)c2n1 [Compound 153]
–,> 1,> 10,< 1,–,Fc1ccc(CNc2ncc3nc(-c4c(F)cccc4Cl)n(CC4CCNC4)c3n2)cc1Cl (stereo not drawn) [Compound 204]
–,> 1,> 1,< 10,> 10,Clc1ccc(CNc2ncc3nc(-c4c(Cl)cccc4Cl)n(CCC4CCNCC4)c3n2)cc1 [Compound 173]

IC50-SGK1 (SGK kinase),Ki (PKC delta) [µM],Ki (PKC alpha) [µM],Ki (PKCθ) [µM],IC50 (SGK kinase) [µM],SMILES
–,> 1,> 1,< 1,–,Fc1ccccc1CNc1ncc2nc(-c3cccc(F)c3F)n(CCC3CCNCC3)c2n1 [Compound 238]
–,> 1,> 1,< 0.1,–,"Clc1cccc(Cl)c1-c1nc2cnc(NCc3cccs3)nc2n1C[C@@H]1CCCNC1 [Compound 119, (R)-8-(2,6-dichlorophenyl)-9-(piperidin-3-ylmethyl)-N-(thiophen-2-ylmethyl)-9H-purin-2-amine]"
Inactive,> 1,–,< 1,–,NC[C@H]1CC[C@H](n2c(-c3ccccc3Cl)nc3cnc(NCc4ccccc4F)nc32)CC1 [Compound 175]
–,> 1,> 10,< 1,–,Clc1ccc(CNc2ncc3nc(-c4c(Cl)cccc4Cl)n(C[C@@H]4CCCNC4)c3n2)cc1Cl [Compound 107]
–,> 1,> 10,< 1,–,Clc1cccc(Cl)c1-c1nc2cnc(NCc3cccs3)nc2n1CCC1CCNCC1 [Compound 203]
Inactive,–,–,–,–,NCC1CCC(n2c(-c3cccc(F)c3F)nc3cnc(NCc4ccccc4F)nc32)CC1 (stereo not drawn) [Compound 222]
–,> 1,> 1,< 1,–,Fc1cccc(CNc2ncc3nc(-c4ccccc4Cl)n(C[C@@H]4CCCNC4)c3n2)c1 [Compound 152]
Inactive,–,–,–,–,Clc1cccc(Cl)c1C1=Nc2cnc(NCc3ccsc3)nc2C1C[C@@H]1CCCNC1 (stereo partly drawn) [Compound 114]
–,> 1,> 10,< 10,–,Clc1ccc(CNc2ncc3nc(-c4ccccc4Cl)n(C[C@@H]4CCCNC4)c3n2)cc1Cl [Compound 165]
–,> 0.25,> 1,< 0.1,–,Fc1cccc(CNc2ncc3nc(-c4c(Cl)cccc4Cl)n(C[C@@H]4CCCNC4)c3n2)c1 [Compound 103]
–,> 1,> 1,< 1,–,C[C@H](Nc1ncc2nc(-c3c(F)cccc3Cl)n(C[C@H]3CCNC3)c2n1)c1ccccc1F [Compound 226]
–,> 1,–,< 1,> 10,NC[C@H]1CC[C@H](n2c(-c3c(Cl)cccc3Cl)nc3cnc(NCc4ccccc4F)nc32)CC1 [Compound 149]
–,> 1,> 10,< 1,–,Fc1cccc(Cl)c1-c1nc2cnc(NCc3cccs3)nc2n1C[C@@H]1CCCNC1 [Compound 169]
–,> 1,> 1,< 1,–,Fc1ccc(Cl)cc1CNc1ncc2nc(-c3c(Cl)cccc3Cl)n(CC3CCNC3)c2n1 (stereo not drawn) [Compound 159]
–,> 1,> 1,< 1,–,Fc1ccccc1CNc1ncc2nc(-c3c(Cl)cccc3Cl)n(C[C@@H]3CCNC3)c2n1 [Compound 220]
–,> 1,> 1,< 1,–,Clc1cccc(Cl)c1-c1nc2cnc(NCc3ccccn3)nc2n1CC1CCNC1 (stereo not drawn) [Compound 262]
Inactive,–,–,–,–,Fc1ccccc1CNc1ncc2nc(-c3c(Cl)cccc3Cl)n(C3CCNCC3)c2n1 [Compound 221]
–,> 1,> 1,< 1,–,Fc1cccc(CNc2ncc3nc(-c4c(F)cccc4Cl)n(C[C@@H]4CCCNC4)c3n2)c1 [Compound 123]
Inactive,–,–,–,–,Cc1ccsc1CNc1ncc2nc(-c3c(Cl)cccc3Cl)n(C[C@@H]3CCCNC3)c2n1 [Compound 201]
Inactive,–,> 1,–,–,Fc1ccccc1CNc1ncc2nc(-c3c(Cl)cccc3Cl)n(C[C@@H]3CCCNC3)c2n1 [Compound 111]
–,> 1,> 1,< 1,–,Fc1ccc(CNc2ncc3nc(-c4c(Cl)cccc4Cl)n(C[C@H]4CCNC4)c3n2)c(F)c1 [Compound 140]
–,> 1,> 1,< 1,–,Clc1cccc(CNc2ncc3nc(-c4c(Cl)cccc4Cl)n(CC4CCNC4)c3n2)c1 (stereo not drawn) [Compound 157]
Inactive,–,–,–,–,Fc1ccc(CNc2ncc3c(n2)C(CC2CNCCO2)C(c2c(F)cccc2Cl)=N3)cc1F (stereo not drawn) [Compound 215]
